According to paper PMC9428149, “Tackling recalcitrant Pseudomonas aeruginosa infections in critical illness via anti-virulence monotherapy” (Nature Communications, 2022):
Where “and” joins values, the source holds several entries; their conditions need not be identical. Equal values may be shown once. Entries after “also recorded” stand apart in the source; their conditions may differ. Read-outs that look alike come from different tables or passages of the source.

Tests used:
[1] = DMPK of D88 in mice (plasma); format: in vivo, mouse; settings: for half-life: read-out: half-life (T ½) (converted)
Method: Experiments were conducted by Aptuit (Verona) S.rl, an Evotec Company in Italy. Six weeks old male CD-1 mice were obtained from Charles River Laboratories, Italy. Mice were maintained on a 12 h light cycle with ad libitum access to rodent feed and water.
Healthy animals received IV 1.0 mg kg^−1 or SC administration of the 10.2 mg kg^−1 in homogeneous suspension in 0.5 % HPMC in water at the volume of 1.7 mL kg^−1. Following administration, blood samples were collected under deep isoflurane anesthesia from the cava vein of each mouse into tubes with K3EDTA, thoroughly but gently mixed, and placed on wet ice. Within 0.5 h of collection, blood was centrifuged (2500 g for 10 min at 4 °C) and within 0.5 h, aliquots of plasma were transferred into appropriately labeled sample tubes. A first 20 µL aliquot were mixed with 80 µL of Hepes 0.1 N. A second 5 µL aliquot of plasma was added to a well plate for urea quantification without dilution. Plasma samples were processed using a method based on protein precipitation with acetonitrile followed by HPLC/MS-MS analysis with an optimized analytical method.

TNF-α = experiment: Ileal TNF-α ELISA; format: in vivo, mouse; settings: burn + PA14 + D88, 22 h
Method: (§1) For the group supplemented with our MvfR-inhibiting compound (D88), mice received five subcutaneous injections (at the nape of the animals) at 1, 4, 8, 12, and 18 h post-BI, at a dose of 24 mg kg^−1 body weight. D88 was prepared in a 40% Captisol vehicle. Control groups received equivalent doses of 40% Captisol vehicle.
(§2) Distal ileal TNF-α and IL-6 were quantified using the mouse TNF-α enzyme-linked immunosorbent assay [ELISA] Ready-SET-Go kit (eBioscience; San Diego, CA, USA) and the Mouse IL-6 DuoSet ELISA (R&D Systems) respectively, as per the manufacturer’s instructions.

A549 cells = experiment: MTT cytotoxicity, A549; format: cell-based, human; settings: for Cell viability (MTT) relative to Vehicle: A549, replicates
Method: (§3) For the determination of cytotoxicity, cell viability was determined using the MTT (3-[4, 5-dimethyl-2-thiazolyl]−2, 5-diphenyl-2H-tetrazolium bromide) assay in the presence and absence of compound (D88). […] The cells were then treated with either vehicle or different concentrations of D88 (10, 20, 30, 40, and 50 µM) for 24 h at 37 °C and 5% CO2. After 24 h, the cells were washed three times with PBS and were incubated in 200 μL PBS containing 200 μg mL^−1 MTT (Sigma-Aldrich) in a 96-well culture plate for 2 h at 37 °C and 5% CO2. Following incubation, the supernatant was discarded, and the cells were lysed in 95% isopropanol and 5% formic acid.

IL-6 = experiment: Ileal IL-6 ELISA; format: in vivo, mouse; settings: burn + PA14 + D88, 22 h
Method: as §1, §2

[2] = target: MvfR binding to the pqsA promoter (Pseudomonas aeruginosa, UniProt Q9I4X0); format: cell-based; settings: for MvfR binding to the pqsA promoter (ChIP-qPCR): D88 +, Figure 5c, replicates
Sequence of MvfR binding to the pqsA promoter (Q9I4X0 whole entry, looked up): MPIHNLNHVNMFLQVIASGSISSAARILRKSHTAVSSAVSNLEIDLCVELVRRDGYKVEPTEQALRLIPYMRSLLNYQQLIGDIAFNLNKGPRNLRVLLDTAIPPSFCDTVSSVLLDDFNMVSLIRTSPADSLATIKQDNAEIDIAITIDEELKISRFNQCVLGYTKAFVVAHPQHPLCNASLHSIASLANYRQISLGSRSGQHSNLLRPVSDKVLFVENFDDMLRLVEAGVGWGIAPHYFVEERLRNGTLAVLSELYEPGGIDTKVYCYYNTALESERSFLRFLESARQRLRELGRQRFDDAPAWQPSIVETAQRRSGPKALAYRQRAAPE

Hep G2 cells = experiment: MTT cytotoxicity, Hep G2; format: cell-based, human; settings: for Cell viability (MTT) relative to Vehicle: Hep G2, replicates
Method: as §3

[3] = test system: MvfR-regulated small molecules at the site of infection; experiment: Production of HHQ, PQS, HQNO, 2-AA and DHQ in vivo; design: species or system mouse
Method: as §1
To measure the production of HHQ, PQS, HQNO, 2-AA, and DHQ in vivo, underlying muscle from the site of infection was collected at 12 h and 22 h post-infection, and the small molecules were extracted by homogenizing them immediately in 1 mL sterile PBS as above. A 500 μL of sample was mixed with an equal volume of methanol containing 10 ppm of HHQ-D4 and 20 ppm of PQS-D4, spun down for 5 min, and 700 μL of supernatant were put in glass vials. Liquid chromatography-mass spectrophotometry ([…]) analysis was performed as described above and in[66].

claudin-1 = experiment: Tight junction claudin-1 immunofluorescence, distal ileum; format: in vivo, mouse;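 for Claudin-1 immunofluorescence quantification (Supplimentary Figure 9): fluorescence intensity in arbitrary units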
Method: as §1
Samples of distal ileum fixed with 4% paraformaldehyde were cut in sections and mounted on microscope slides. After deparaffinization and antigen retrieval (Antigen Retrieval reagent; R&D Systems, Minneapolis, MN, USA), tissue sections were immersed in PBS/0.1 tween for 10 min and were blocked by Normal Goat Serum. They were then incubated with primary antibody rabbit polyclonal anti-claudin-1 (Catalog# 71-7800; final concentration, 1:100; Invitrogen, Rockford, IL, USA) overnight in a humid chamber at 4 °C. The sections were washed three times with PBS and secondary antibody goat anti-rabbit (Catalog# ab150061; final concentration: 1:500; Abcam, Cambridge, MA, USA) and DAPI (Catalog# ab228549; Abcam, Cambridge, MA, USA) were added, and incubated 1 h at room temperature. The sections were then washed three times with PBS, dried, and mounted, and images were collected using a confocal microscope (Nikon ECLIPSE Ti2; NIS-Elements AR 5.21.03; Nikon Instruments Inc., Tokyo, Japan).

PA14 burn-site infection = experiment: In vivo intestinal permeability (FITC-dextran) in burn-site infection model; design: species or system mouse
[4] = male, CD-1, mouse, 1 mg/kg IV, plasma
[5] = male, CD-1, mouse, 10 mg/kg SC, plasma
[6] = D88 Treated 12h, site of infection, single mice, Figure 6d
[7] = D88 Treated 22h, site of infection, single mice, Figure 6d

For N#Cc1ccc(NC(=O)C(F)C(=O)Nc2ccc(Oc3ccccc3)cc2)cc1 (stereo not drawn) [D88], the Clast ([1]; 1 mg/kg IV, plasma) was 14.2 ng/mL, the Clast ([1]; 10 mg/kg SC, plasma) was 66.6 ng/mL and the “Concentration” value ([1]; IV Injection 1mg/kg, Time 0.08 h, individual animals, 1 mg/kg) was 648 ng/mL and 1150 ng/mL and 1460 ng/mL. The “Concentration” value ([1]; IV Injection 1mg/kg, Time 0.33 h, individual animals, 1 mg/kg) was 210 ng/mL and 298 ng/mL and 486 ng/mL, the “Concentration” value ([1]; IV Injection 1mg/kg, Time 0.67 h, individual animals, 1 mg/kg) was 77.1 ng/mL and 131 ng/mL and the “Concentration” value ([1]; IV Injection 1mg/kg, Time 1 h, individual animals, 1 mg/kg) was 10.9 ng/mL and 25.8 ng/mL and 57.4 ng/mL. The “Concentration” value ([1]; SC Injection 10mg/kg, Time 0.08 h, individual animals, 10 mg/kg) was 491 ng/mL and 600 ng/mL and 954 ng/mL and 1250 ng/mL, the “Concentration” value ([1]; SC Injection 10mg/kg, Time 0.33 h, individual animals, 10 mg/kg) was 712 ng/mL and 1020 ng/mL and 1060 ng/mL and 1590 ng/mL and the “Concentration” value ([1]; SC Injection 10mg/kg, Time 0.67 h, individual animals, 10 mg/kg) was 581 ng/mL and 875 ng/mL and 940 ng/mL and 1190 ng/mL. For the same molecule, the “Concentration” value ([1]; SC Injection 10mg/kg, Time 1 h, individual animals, 10 mg/kg) was 513 ng/mL and 854 ng/mL and 838 ng/mL and 1070 ng/mL, the “Concentration” value ([1]; SC Injection 10mg/kg, Time 2 h, individual animals, 10 mg/kg) was 746 ng/mL and 683 ng/mL and 744 ng/mL and the “Concentration” value ([1]; SC Injection 10mg/kg, Time 3.8 h, individual animals, 10 mg/kg) was 90.5 ng/mL and 323 ng/mL and 480 ng/mL and 304 ng/mL. The “Concentration” value ([1]; SC Injection 10mg/kg, Time 6 h, individual animals, 10 mg/kg) was 21.9 ng/mL and 63.8 ng/mL and 101 ng/mL and 79.7 ng/mL, the concentration at 0.67 h ([1]; male, CD-1, mouse, plasma, iv, 1 mg/kg, IV Injection 1mg/kg, Time 0.67 h, individual animals) was 76.4 ng/mL and the concentration at 2 h ([1]; male, CD-1, mouse, plasma, iv, 1 mg/kg, IV Injection 1mg/kg, Time 2 h, individual animals) was 5.9 ng/mL. The concentration at 2 h ([1]; male, CD-1, mouse, plasma, sc, 10 mg/kg, SC Injection 10mg/kg, Time 2 h, individual animals) was 443 ng/mL, the Cmax [1, 4] was 1090 ng/mL and the Tmax [1, 4] was 4.8 min. For the same molecule, the half-life [1, 4] was 16.2 min, the Cmax [1, 5] was 1100 ng/mL and the Tmax [1, 5] was 19.8 min. The half-life [1, 5] was 75 min, the “mean ileal TNF-α level” value (TNF-α) was 381 pg mL^−1 g^−1 tissue and the cell viability (A549 cells; A549, 10-50 µM, 24 h) was “None of the used compound concentrations exerted any cytotoxic effect; also recorded: no significant changes in cell viability”. The “Cell viability (MTT) relative to Vehicle” value (A549 cells; 10 μM) was 104.92 and 112.79 and 105.24 and 97.24 and 88.17, the “Cell viability (MTT) relative to Vehicle” value (A549 cells; 20 μM) was 104.85 and 98.03 and 95.15 and 98.27 and 93.91 and the “Cell viability (MTT) relative to Vehicle” value (A549 cells; 30 μM) was 88.06 and 91.37 and 110.19 and 88.29 and 118.10. For the same molecule, the “Cell viability (MTT) relative to Vehicle” value (A549 cells; 40 μM) was 104.24 and 86.59 and 104.97 and 101.16 and 96.70, the “Cell viability (MTT) relative to Vehicle” value (A549 cells; 50 μM) was 95.15 and 105.16 and 99.77 and 98.12 and the “ileal IL-6 level” value (IL-6) was “marked decrease”. For the same molecule, the “reduction of MvfR binding to the pqs operon promoter” value ([2]; 50 µM D88, vs control) was ~ 80%, the “PQS-mediated increase in MvfR binding” value ([2]; D88 50 µM + PQS 38 µM) was “significantly decreased” and the “MvfR binding to the pqsA promoter (ChIP-qPCR)” value ([2]; PQS +) was 4.271 and 2.782 and 2.485. The “MvfR binding to the pqsA promoter (ChIP-qPCR)” value ([2]; PQS −) was 1.532 and 0.7796 and 1.309, the cell viability (Hep G2 cells; Hep G2, 10-50 µM, 24 h) was “None of the used compound concentrations exerted any cytotoxic effect; also recorded: no significant changes in cell viability” and the “Cell viability (MTT) relative to Vehicle” value (Hep G2 cells; 10 μM) was 91.32 and 107.98 and 99.70 and 117.35 and 109.09 and 100.19. For the same molecule, the “Cell viability (MTT) relative to Vehicle” value (Hep G2 cells; 20 μM) was 95.30 and 117.21 and 108.45 and 112.28 and 97.33 and 109.75, the “Cell viability (MTT) relative to Vehicle” value (Hep G2 cells; 30 μM) was 92.58 and 115.65 and 108.60 and 112.37 and 92.39 and 103.33 and the “Cell viability (MTT) relative to Vehicle” value (Hep G2 cells; 40 μM) was 107.42 and 114.93 and 105.81 and 114.05 and 107.35 and 99.51. The “Cell viability (MTT) relative to Vehicle” value (Hep G2 cells; 50 μM) was 91.19 and 110.82 and 100.96 and 118.91, the “levels of HHQ, PQS, HQNO, 2-AA and DHQ at the site of infection” value ([3]; 12 h post-infection) was “strong inhibitory efficacy” and the “levels of HHQ, PQS, HQNO, 2-AA and DHQ at the site of infection” value ([3]; 22 h post-infection) was “complete abolishment”. It also gave a DHQ [3, 6] of 0.0000, an HQNO [3, 6] of 0.0000 and a 2-AA [3, 7] of 0.0000. For the same molecule, the DHQ [3, 7] was 0.0000, the “Claudin-1 immunofluorescence quantification (Supplimentary Figure 9)” value (claudin-1; PA14+D88 group, compare Sham, PA14+Vehicle, ΔmvfR, individual measurements) was 148.508 and 162.001 and 157.541 and 137.39 and 152.028 and 182.597 and 148.327 and 116.923 and 109.707 and 109.463 and the “claudin-1 staining fluorescence intensity” value (claudin-1; ileum, PA14 infected + D88, 22 h) was 142.48 AUs. The “mean FITC-dextran in serum” value (PA14 burn-site infection; burn + PA14 infection, D88 24 mg kg^−1 SC x5, 22 h) was 2759 ng/mL, the “mean FITC-dextran in serum” value (PA14 burn-site infection; burn alone without infection, D88-treated, 22 h) was 850 ng/mL and the intestinal permeability status (PA14 burn-site infection; mvfR mutant-infected mice treated with D88 vs no treatment or vehicle) was “no difference in the intestinal permeability status”.
